Experimental data from patent US8822517B2, “Arylosulfonamides for the treatment of CNS diseases” (Adamed SP. Z O.O., priority 2010, dated 2014).
Where two headings read alike, the source gives them in different places.

Tests used:
muscarinic M3 receptor = biological target: T1, muscarinic M3 receptor (Homo sapiens, UniProt P20309); assay: Binding assay M3 (h), [3H]4-DAMP, CHO cells; conditions: read-out: M3 [%]
T1 construct: expressed in transfected cells; host or cells: CHO cells
How it was run: (§1)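 Total binding and binding under an excess of unlabelled competitor were both measured, the difference giving specific binding. Counts came from scintillation detection, and compound concentration was 1×10^−6 M.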

[1] = biological target: T2, serotoninergic receptor 5-HT2C (Homo sapiens, UniProt P28335); assay: Binding assay 5-HT2C (h), [3H]mesulergine, HEK-293 cells; conditions: read-out: 5-HT2C [%]
T2 construct: expressed in transfected cells; host or cells: HEK-293 cells
T2 sequence (P28335 33-458): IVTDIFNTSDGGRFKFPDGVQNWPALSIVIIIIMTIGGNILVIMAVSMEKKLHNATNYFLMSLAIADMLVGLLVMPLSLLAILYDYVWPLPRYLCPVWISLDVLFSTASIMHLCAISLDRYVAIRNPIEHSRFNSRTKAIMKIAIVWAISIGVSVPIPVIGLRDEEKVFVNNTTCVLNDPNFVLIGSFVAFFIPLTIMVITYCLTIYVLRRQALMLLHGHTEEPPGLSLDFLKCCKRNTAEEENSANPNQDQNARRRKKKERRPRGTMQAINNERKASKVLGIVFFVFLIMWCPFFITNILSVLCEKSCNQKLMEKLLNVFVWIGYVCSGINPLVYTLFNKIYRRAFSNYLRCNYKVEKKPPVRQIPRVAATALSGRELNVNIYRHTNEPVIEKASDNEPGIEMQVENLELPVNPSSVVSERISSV
How it was run: as §1

dopaminergic D3 receptor [2] = biological target: T3, dopaminergic D3 receptor (Homo sapiens, UniProt P35462); assay: Cellular functional assay, dopaminergic D3 receptor (agonism/antagonism); format: cell-based
T3 sequence (P35462 whole entry): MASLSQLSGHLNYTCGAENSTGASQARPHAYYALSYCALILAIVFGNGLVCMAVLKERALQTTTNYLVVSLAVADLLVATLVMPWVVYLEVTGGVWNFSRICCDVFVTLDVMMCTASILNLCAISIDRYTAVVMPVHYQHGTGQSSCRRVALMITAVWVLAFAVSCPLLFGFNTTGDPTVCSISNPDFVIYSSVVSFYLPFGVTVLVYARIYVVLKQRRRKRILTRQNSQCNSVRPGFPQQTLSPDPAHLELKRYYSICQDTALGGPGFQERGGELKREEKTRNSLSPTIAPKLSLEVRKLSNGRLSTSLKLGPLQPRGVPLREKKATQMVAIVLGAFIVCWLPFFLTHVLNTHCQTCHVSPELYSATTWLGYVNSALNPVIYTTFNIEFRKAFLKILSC
Description: (§2) The compounds were tested at the concentration of 1×10^−6M.
(§3) In the Tables ag refers to agonism, and antag to antagonism).

[3] = biological target: serotoninergic 5-HT2A receptor (Homo sapiens, UniProt P28223); assay: Cellular functional assay, serotoninergic 5-HT2A receptor (agonism/antagonism); format: cell-based; conditions: for activation at 1 µM: read-out: 5-HT2A -ag [%]; for inhibition at 1 µM: read-out: 5-HT2A -antag [%]
serotoninergic 5-HT2A receptor, sequence (P28223 whole entry): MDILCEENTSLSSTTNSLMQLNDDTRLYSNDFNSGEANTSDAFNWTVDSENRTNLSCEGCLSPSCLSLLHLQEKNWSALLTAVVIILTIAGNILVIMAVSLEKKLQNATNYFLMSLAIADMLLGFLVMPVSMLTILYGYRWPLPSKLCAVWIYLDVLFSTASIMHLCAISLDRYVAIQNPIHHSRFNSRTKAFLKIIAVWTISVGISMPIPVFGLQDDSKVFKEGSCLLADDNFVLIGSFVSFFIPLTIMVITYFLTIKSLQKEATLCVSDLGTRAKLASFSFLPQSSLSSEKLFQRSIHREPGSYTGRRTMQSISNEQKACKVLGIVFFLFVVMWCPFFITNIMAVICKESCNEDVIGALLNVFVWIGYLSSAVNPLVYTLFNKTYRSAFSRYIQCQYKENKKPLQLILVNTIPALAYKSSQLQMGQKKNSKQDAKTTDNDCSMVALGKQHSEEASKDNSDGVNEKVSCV
How it was run: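 Human receptors tested in cell-based functional format for both agonist and antagonist modes. Single compound concentration of 1×10^−6M.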

[4] = biological target: T4, serotoninergic 5-HT6 receptor (Homo sapiens, UniProt P50406); assay: Cellular functional assay, serotoninergic 5-HT6 receptor (agonism/antagonism); format: cell-based; conditions: for activation at 1 µM: read-out: 5-HT6-ag [%]; for inhibition at 1 µM: read-out: 5-HT6-antag. [%]
T4 sequence (P50406 whole entry): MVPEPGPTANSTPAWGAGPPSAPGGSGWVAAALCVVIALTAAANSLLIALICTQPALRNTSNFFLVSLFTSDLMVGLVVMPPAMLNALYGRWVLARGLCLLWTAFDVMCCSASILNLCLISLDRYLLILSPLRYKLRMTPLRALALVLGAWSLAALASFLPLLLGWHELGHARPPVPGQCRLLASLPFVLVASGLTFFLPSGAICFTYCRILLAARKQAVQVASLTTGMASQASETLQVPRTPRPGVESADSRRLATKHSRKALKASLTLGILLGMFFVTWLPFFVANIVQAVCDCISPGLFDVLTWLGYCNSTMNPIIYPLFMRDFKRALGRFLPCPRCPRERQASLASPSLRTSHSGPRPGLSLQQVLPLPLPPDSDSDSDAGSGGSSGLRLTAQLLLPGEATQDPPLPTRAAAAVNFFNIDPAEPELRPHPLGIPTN
Description: as §2, §3

adrenergic α2C receptor [5] = biological target: T5, adrenergic α2C receptor (Homo sapiens, UniProt P18825); assay: Cellular functional assay, adrenergic α2C receptor (agonism/antagonism); format: cell-based; conditions: for activation at 1 µM: read-out: α2C −ag [%]; for inhibition at 1 µM: read-out: α2C −antag. [%]
T5 sequence (P18825 1-462): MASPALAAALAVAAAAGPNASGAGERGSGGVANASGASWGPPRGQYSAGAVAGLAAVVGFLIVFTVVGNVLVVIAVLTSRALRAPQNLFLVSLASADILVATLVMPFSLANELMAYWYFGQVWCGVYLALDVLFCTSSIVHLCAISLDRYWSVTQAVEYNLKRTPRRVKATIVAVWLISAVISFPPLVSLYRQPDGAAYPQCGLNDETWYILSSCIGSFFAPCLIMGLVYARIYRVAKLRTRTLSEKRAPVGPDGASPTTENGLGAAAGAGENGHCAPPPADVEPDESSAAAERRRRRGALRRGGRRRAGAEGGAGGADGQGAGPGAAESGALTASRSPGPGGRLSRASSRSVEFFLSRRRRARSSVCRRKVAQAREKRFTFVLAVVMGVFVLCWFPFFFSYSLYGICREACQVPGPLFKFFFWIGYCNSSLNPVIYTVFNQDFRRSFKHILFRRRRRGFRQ
Description: as §2, §3

dopaminergic D3 receptor [6] = biological target: T3, dopaminergic D3 receptor; assay: Binding assay D3 (h), [3H]methyl-spiperone, CHO cells; parameters: expressed in transfected cells; host or cells: CHO cells; conditions: read-out: D3 [%]
How it was run: as §1

[7] = biological target: T4, serotoninergic 5-HT6 receptor; assay: Binding assay 5-HT6 (h), [3H]LSD, CHO cells; parameters: expressed in transfected cells; host or cells: CHO cells; conditions: read-out: 5-HT6
How it was run: as §1

[8] = biological target: serotoninergic 5-HT7 receptor (Homo sapiens, UniProt P34969); assay: Binding assay 5-HT7 (h), [3H]LSD, CHO cells; parameters: expressed in transfected cells; host or cells: CHO cells; conditions: read-out: 5-HT7
serotoninergic 5-HT7 receptor, sequence (P34969 whole entry): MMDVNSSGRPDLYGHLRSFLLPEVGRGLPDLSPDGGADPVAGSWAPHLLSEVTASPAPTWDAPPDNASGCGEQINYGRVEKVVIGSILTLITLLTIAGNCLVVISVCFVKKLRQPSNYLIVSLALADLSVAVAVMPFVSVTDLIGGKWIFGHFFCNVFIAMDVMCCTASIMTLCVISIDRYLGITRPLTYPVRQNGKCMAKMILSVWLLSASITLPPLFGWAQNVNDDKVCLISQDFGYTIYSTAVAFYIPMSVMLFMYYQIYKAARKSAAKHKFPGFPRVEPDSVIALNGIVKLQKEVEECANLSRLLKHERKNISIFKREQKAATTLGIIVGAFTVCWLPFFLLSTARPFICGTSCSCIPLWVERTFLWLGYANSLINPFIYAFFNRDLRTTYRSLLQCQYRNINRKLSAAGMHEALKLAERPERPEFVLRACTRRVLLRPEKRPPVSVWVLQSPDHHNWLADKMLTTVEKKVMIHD
How it was run: as §1

adrenergic α2C receptor [9] = biological target: T5, adrenergic α2C receptor; assay: Binding assay α2C (h), [3H]RX 821002, CHO cells; parameters: expressed in transfected cells; host or cells: CHO cells; conditions: read-out: α2C [%]
How it was run: as §1

[10] = biological target: histaminergic H1 receptor (Homo sapiens, UniProt P35367); assay: Binding assay H1 (h), [3H]pyrilamine, HEK-293 cells; parameters: expressed in transfected cells; host or cells: HEK-293 cells; conditions: read-out: H1 [%]
histaminergic H1 receptor, sequence (P35367 whole entry): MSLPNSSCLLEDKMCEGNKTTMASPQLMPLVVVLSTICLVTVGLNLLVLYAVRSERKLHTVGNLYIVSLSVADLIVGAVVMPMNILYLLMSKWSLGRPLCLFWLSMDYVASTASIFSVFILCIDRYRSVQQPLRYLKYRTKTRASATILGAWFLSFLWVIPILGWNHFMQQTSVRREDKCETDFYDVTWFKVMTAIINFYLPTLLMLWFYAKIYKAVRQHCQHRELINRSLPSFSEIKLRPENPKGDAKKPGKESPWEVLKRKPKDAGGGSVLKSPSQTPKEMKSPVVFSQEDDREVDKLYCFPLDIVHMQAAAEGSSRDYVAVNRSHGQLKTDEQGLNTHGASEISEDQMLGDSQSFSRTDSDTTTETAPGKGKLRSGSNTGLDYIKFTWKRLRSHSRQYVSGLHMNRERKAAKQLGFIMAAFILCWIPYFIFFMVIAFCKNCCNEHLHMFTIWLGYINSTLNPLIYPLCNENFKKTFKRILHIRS
How it was run: as §1

hERG potassium channels = hERG potassium channels (Homo sapiens, UniProt Q12809); assay: hERG potassium channel block, electrophysiology (IonWorks Quattro), CHO cells
hERG potassium channels, sequence (Q12809 whole entry): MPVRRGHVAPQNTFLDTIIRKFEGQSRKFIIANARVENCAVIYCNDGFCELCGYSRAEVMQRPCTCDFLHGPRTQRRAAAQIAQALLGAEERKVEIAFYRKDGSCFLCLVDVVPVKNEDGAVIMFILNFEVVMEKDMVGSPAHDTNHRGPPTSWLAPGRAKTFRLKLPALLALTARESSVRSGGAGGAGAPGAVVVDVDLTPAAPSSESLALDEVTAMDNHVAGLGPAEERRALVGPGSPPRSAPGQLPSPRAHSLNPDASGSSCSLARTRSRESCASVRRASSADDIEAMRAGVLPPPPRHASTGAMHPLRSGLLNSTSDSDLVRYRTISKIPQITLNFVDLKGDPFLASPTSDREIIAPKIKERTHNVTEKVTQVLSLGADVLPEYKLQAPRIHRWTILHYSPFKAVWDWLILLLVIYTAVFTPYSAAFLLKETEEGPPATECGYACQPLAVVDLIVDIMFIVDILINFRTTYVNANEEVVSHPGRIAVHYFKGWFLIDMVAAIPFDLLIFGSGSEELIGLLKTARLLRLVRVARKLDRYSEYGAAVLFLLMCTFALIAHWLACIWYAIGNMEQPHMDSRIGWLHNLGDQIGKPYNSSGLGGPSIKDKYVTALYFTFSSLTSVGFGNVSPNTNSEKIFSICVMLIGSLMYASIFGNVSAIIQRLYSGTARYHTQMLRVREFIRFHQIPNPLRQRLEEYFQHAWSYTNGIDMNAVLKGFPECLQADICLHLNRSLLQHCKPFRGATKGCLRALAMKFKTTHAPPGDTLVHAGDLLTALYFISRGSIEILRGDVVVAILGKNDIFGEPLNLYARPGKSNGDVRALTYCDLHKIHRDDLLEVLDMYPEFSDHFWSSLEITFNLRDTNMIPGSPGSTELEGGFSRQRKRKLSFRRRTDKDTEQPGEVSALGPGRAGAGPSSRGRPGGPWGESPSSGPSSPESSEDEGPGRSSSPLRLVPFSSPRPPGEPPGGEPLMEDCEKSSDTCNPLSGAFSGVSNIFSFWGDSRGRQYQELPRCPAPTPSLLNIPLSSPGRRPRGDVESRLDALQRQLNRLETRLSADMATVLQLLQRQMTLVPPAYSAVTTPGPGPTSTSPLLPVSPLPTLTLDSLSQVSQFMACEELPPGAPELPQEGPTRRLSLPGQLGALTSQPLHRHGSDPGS
Description: Ability to block hERG potassium channels was determined using the electrophysiological method and cloned hERG potassium channels (KCNH2 gene, expressed in CHO cells) as biological material. The effects were evaluated using IonWorks™ Quattro system (MDS-AT).
hERG current was elicited using a pulse pattern with fixed amplitudes (conditioning prepulse: −80 mV for 25 ms; test pulse: +40 mV for 80 ms) from a holding potential of 0 mV. hERG current was measured as a difference between the peak current at 1 ms after the test step to +40 mV and the steady-state current at the end of the step to +40 mV.
Data acquisition and analyses was performed using the IonWorks Quattro™ system operation software (version 2.0.2; Molecular Devices Corporation, Union City, Calif.). Data were corrected for leak current.

[11] = agonist effect, percent of control specific agonist response (300 nM dopamine for control); 1×10^−6 M; D3 (h), CHO cells; read-out: D3-ag [%]
[12] = agonist effect, percent of control specific agonist response, compounds tested at 1×10^−6M
[13] = % block of hERG current, cloned hERG channels in CHO cells, IonWorks Quattro

T1 sequence (P20309 whole entry): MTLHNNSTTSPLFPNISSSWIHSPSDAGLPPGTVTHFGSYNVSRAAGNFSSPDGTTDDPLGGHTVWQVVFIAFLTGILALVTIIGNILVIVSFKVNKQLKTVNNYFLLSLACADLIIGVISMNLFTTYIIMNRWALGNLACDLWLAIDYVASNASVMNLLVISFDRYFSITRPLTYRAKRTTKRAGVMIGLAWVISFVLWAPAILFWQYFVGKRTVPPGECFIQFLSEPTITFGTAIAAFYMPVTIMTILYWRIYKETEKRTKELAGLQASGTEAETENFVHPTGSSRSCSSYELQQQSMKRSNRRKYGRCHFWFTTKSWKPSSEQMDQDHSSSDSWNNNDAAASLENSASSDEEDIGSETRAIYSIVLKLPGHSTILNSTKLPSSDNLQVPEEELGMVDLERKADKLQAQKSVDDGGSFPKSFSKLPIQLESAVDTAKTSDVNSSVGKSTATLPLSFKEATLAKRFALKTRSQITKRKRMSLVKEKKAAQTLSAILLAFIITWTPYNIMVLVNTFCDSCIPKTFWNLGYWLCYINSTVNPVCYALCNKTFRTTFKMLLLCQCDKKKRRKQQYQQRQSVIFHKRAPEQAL

Compound | inhibition at 1 µM (muscarinic M3 receptor) | inhibition at 1 µM [1] | inhibition at 1 µM (dopaminergic D3 receptor [2]; CHO; read-out: D3-antag. [%]) | activation at 1 µM (dopaminergic D3 receptor [2]; [11]) | activation at 1 µM [3] | inhibition at 1 µM [3] | activation at 1 µM [4, 12] | inhibition at 1 µM [4] | activation at 1 µM (adrenergic α2C receptor [5]; [12]) | inhibition at 1 µM (adrenergic α2C receptor [5]) | inhibition at 1 µM (dopaminergic D3 receptor [6]) | inhibition at 1 µM [7] | inhibition at 1 µM [8] | inhibition at 1 µM (adrenergic α2C receptor [9]) | inhibition at 1 µM [10] | hERG [%] (hERG potassium channels; [13]) | further results
O=S(=O)(NCCCCN1CCN(c2nsc3ccccc23)CC1)c1cccc2ccccc12 [Compound 1, N-(4-(4-(1,2-Benzothiazol-3-yl)piperazin-1-yl)butyl)naphthalene-1-sulphonamide] | 13% | 80% | 49% | -17% | 0% | 99% | 1% | 39% | -9% | 7% | 96% | 95% | 96% | 100% | 91% | 16% | 
O=S(=O)(NCCCCN1CCN(c2nsc3ccccc23)CC1)c1ccc2ccccc2c1 [Compound 2, N-(4-(4-(1,2-Benzothiazol-3-yl)piperazin-1-yl)butyl)naphthalene-2-sulphonamide] | 17% | 89% |  |  | 2% | 102% |  | 28% |  | 30% | 100% | 97% | 97% | 101% | 94% |  | activation at 1 µM (dopaminergic D3 receptor [2]; CHO, read-out: D3-ag [%]): -15%; inhibition at 1 µM (dopaminergic D3 receptor [2]; CHO, read-out: D3-antag. [%]): 81%; activation at 1 µM [4]: 2%; activation at 1 µM (adrenergic α2C receptor [5]): -8%; hERG [%] (hERG potassium channels): 14%
Cc1cccc(S(=O)(=O)NCCCN2CCN(c3nsc4ccccc34)CC2)c1 [Compound 7, N-(3-(4-(1,2-Benzothiazol-3-yl)piperazin-1-yl)propyl)-3-methylbenzenesulphonamide] | 13% | 89% | 66% | -21% | 0% | 100% | 1% | 65% | -6% | 2% | 97% | 98% | 97% | 96% | 93% | 14% | 
O=S(=O)(NCCCCN1CCN(c2noc3ccccc23)CC1)c1ccc2ccccc2c1 [Compound 14, N-(4-(4-(1,2-Benzoxazol-3-yl)piperazin-1-yl)butyl)naphthalene-2-sulphonamide] | -6% | 51% | 92% | -15% | 1% | 100% | 1% | 69% | -3% | 12% | 97% | 99% | 99% | 100% | 88% | −1.4% | 
O=S(=O)(NCCCCN1CCC(c2noc3cc(F)ccc23)CC1)c1ccc2ccccc2c1 [Compound 18, N-[4-[4-(6-Fluoro-1,2-benzoxazol-3-yl)piperidin-1-yl]butyl]naphthalene-2-sulphonamide] | 6% | 73% | 114% | -27% | -1% | 102% | 1% | 87% | -10% | 28% | 98% | 100% | 98% | 100% | 79% | 30% | 
Cc1cccc(S(=O)(=O)NCCCN2CCC(c3noc4cc(F)ccc34)CC2)c1 [Compound 22, N-[3-[4-(6-Fluoro-1,2-benzoxazol-3-yl)piperidin-1-yl]propyl]-3-methylbenzenesulphonamide] | 12% | 73% | 81% | -25% | -1% | 102% | 1% | 82% | -8% | 12% | 96% | 99% | 99% | 100% | 88% | 52% | 
O=S(=O)(NCCCCN1CCN(c2nsc3ccccc23)CC1)c1ccc2cc(Cl)ccc2c1 [Compound 61, N-[4-[4-(1,2-Benzothiazol-3-yl)piperazin-1-yl]butyl]-6-chloro-naphthalene-2-sulphonamide] | 5% | 95% | 45% | 4% | 0% | 97% | -2% | 72% | 1% | 18% | 96% | 96% | 100% | 101% | 97% | 12% | 
Cc1c(S(=O)(=O)NCCCCN2CCC(c3noc4cc(F)ccc34)CC2)sc2ccc(F)cc12 [Compound 101, 5-Fluoro-N-[4-[4-(6-fluoro-1,2-benzoxazol-3-yl)piperidin-1-yl]butyl]-3-methylbenzothiophene-2-sulphonamide] | 14% | 80% | 112% | -18% | -1% | 100% | -2% | 103% | 1% | 46% | 92% | 98% | 98% | 106% | 97% | 14% | 
O=S(=O)(NCCCCN1CCN(c2cccc3[nH]ccc23)CC1)c1cc2ccc(Cl)cc2s1 [Compound 363, 6-Chloro-N-[4-[4-(1H-indol-4-yl)piperazin-1-yl]butyl]benzothiophene-2-sulphonamide] | 15% | 57% | -3% | 65% | -1% | 62% |  |  | 17% | 42% | 101% | 84% | 98% | 101% | 70% | 0% | 
